Source: US7964613B2 (Asahi Kasei Pharma Corporation, priority 2007, dated 2011)
Counter-ions that a name gives are not always drawn.

Columns and labels:
[1] = system: intraocular pressure; assay: Rabbit intraocular pressure reduction enhancing action, Test Example 7-2 (combination use with timolol maleate); assay type: in vivo, Japanese white rabbit; details: Table 6; 19-1 compound 0.01 weight % aqueous solution 50 μL, Timoptol 50 μL; difference relative to control group at 1, 2, 4 hours; 12 rabbits
Method: As a test compound, the 19-1 compound was dissolved in physiological saline, and the solution was neutralized by addition of sodium hydroxide (pH 7.0 to 8.0) to prepare a 0.01 weight % aqueous solution (19-1 compound aqueous solution). As a drug for combination use, timolol maleate (trade name: Timoptol, Santen Pharmaceutical) was used as an adrenergic receptor β blocker, as the marketed formulation as it was.
A Japanese white rabbit having a body weight of about 2 kg was placed in a positioner and naturalized for one week before the experiment. An opthalmologic local anesthesant (Benoxil) was administered to both eyes, and then intraocular pressure before instillation was measured by using a tonometer (Classic 30, Solan). […] The intraocular pressure thereafter was measured for each group 1, 2 and 4 hours after the second administration of the test compound, and the difference of the measured values at each measurement time for the each group and the control group was considered an intraocular pressure reduction value of each group. The largest difference of the intraocular pressure values relative to the control group among those of the measured values of the measurement times was considered the maximum intraocular pressure reduction value (max ? IOP) of each drug group.

[2] = system: myosin regulatory light chain of mesenteric artery; details: cited from earlier work

Structure (SMILES)	Max IOP (maximum intraocular pressure reduction value) [1]	inhibition of phosphorylation of myosin regulatory light chain [2]
CC(C)(C)NC[C@H](O)COc1nsnc1N1CCOCC1 [timolol maleate, reference compound]	1.9 mmHg	
CC1CNCCN1S(=O)(=O)c1cccc2cnccc12 (centres unmarked) [Example H-7, 1-(5-isoquinolinesulfonyl)-2-methylpiperazine]		inhibits the phosphorylation of myosin regulatory light chain of mesenteric artery
